Laboratory results: ChEMBL document CHEMBL5625219, “Design, synthesis fusidic acid derivatives alleviate acute lung injury via inhibiting MAPK/NF-κB/NLRP3 pathway” (Eur J Med Chem, 2023)
Calls of active or inactive are those of the source.

Legend:
Mus musculus [1] = assay: (§1) Anti-inflammatory activity in LPS-induced BALB/c mouse model of […] assessed as inhibition of LPS-induced increase in TNF-alpha expression in serum at 10 mg/kg, po preadministered with compound for 3 days followed by LPS stimulation for 6 hrs after 1 hrs compound administration on day 3 by ELISA; format: functional, organism-based; conditions: time 3.0 day
Mus musculus [2] = assay: (§2) Anti-inflammatory activity in LPS-induced BALB/c mouse model of […] assessed as attenuation of inflammatory cell infiltration in lungs at 10 mg/kg, po preadministered with compound for 3 days followed by LPS stimulation for 6 hrs after 1 hrs compound administration on day 3 by H&E staining based analysis; format: functional, organism-based; conditions: time 3.0 day
Mus musculus [3] = assay: as §2, with “lung alveolar hemorrhage” for “inflammatory cell infiltration in lungs”; format: functional, organism-based; conditions: time 3.0 day
Mus musculus [4] = assay: (§3) In vivo inhibition of NFkappaB activation in LPS-induced BALB/c mouse model of […] assessed as inhibition of IkappaBalpha degradation at 10 mg/kg, po preadministered with compound for 3 days followed by LPS stimulation for 6 hrs after 1 hrs compound administration on day 3 by Western blot analysis; format: functional, organism-based; conditions: time 3.0 day
Mus musculus [5] = assay: as §1, with “IL-6” for “TNF-alpha”; format: functional, organism-based; conditions: time 3.0 day
Mus musculus [6] = assay: as §1, with “NO production” for “TNF-alpha expression”, “BALF” for “serum”, “Griess reagent based method” for “ELISA”; format: functional, organism-based; conditions: time 3.0 day
Mus musculus [7] = assay: Anti-inflammatory activity in LPS-induced BALB/c mouse model of […] assessed as inhibition of LPS-induced increase in lung W/D ratio at 10 mg/kg, po preadministered with compound for 3 days followed by LPS stimulation for 6 hrs after 1 hrs compound administration on day 3; format: functional, organism-based; conditions: time 3.0 day
Mus musculus [8] = assay: as §1, with “BALF” for “serum”; format: functional, organism-based; conditions: time 3.0 day
Mus musculus [9] = assay: as §3, with “NFkappaB” for “IkappaBalpha”; format: functional, organism-based; conditions: time 3.0 day
Mus musculus [10] = assay: as §1, with “NO production” for “TNF-alpha expression”, “Griess reagent based method” for “ELISA”; format: functional, organism-based; conditions: time 3.0 day
Mus musculus [11] = assay: as §1, with “IL-6” for “TNF-alpha”, “BALF” for “serum”; format: functional, organism-based; conditions: time 3.0 day
Mus musculus [12] = assay: (§4) In vivo inhibition of NLRP3 inflammasome activation in LPS-induced BALB/c mouse model of […] assessed as reduction in IL-1beta expression preadministered orally with compound for 3 days followed by LPS stimulation for 6 hrs after 1 hrs compound administration on day 3 by Western blot analysis; format: functional; conditions: dose 5-20 mg/kg, route po, time 3.0 day
[13] = target: NACHT, LRR and PYD domains-containing protein 3 (Mus musculus) (UniProt Q8R4B8); assay: Inhibition of NLRP3 inflammasome activation in LPS-stimulated mouse RAW264.7 cells assessed as decrease in caspase-1 expression at 2.5 to 10 uM by Western blot analysis; format: cell-based; conditions: dose 2.5-10 µM
Mus musculus [14] = assay: as §1, with “5 to 20” for “10”; format: functional, organism-based; conditions: dose 5-20 mg/kg, time 3.0 day
Mus musculus [15] = assay: In vivo inhibition of MAPK activation in LPS-induced BALB/c mouse model of […] assessed as inhibition of ERK phosphorylation preadministered orally with compound for 3 days followed by LPS stimulation for 6 hrs after 1 hrs compound administration on day 3 by Western blot analysis; format: functional; conditions: dose 5-20 mg/kg, route po, time 3.0 day
[16] = target: NACHT, LRR and PYD domains-containing protein 3 (Mus musculus) (UniProt Q8R4B8); assay: Inhibition of NLRP3 inflammasome activation in LPS-stimulated mouse RAW264.7 cells assessed as downregulation of IL-1beta expression by Western blot analysis; format: cell-based; conditions: dose 2.5-10 µM
Mus musculus [17] = assay: as §3, with “degradation” for “degradation at 10 mg/kg, po”, “preadministered orally” for “preadministered”; format: functional; conditions: dose 5-20 mg/kg, route po, time 3.0 day
Mus musculus [18] = assay: In vivo inhibition of MAPK activation in LPS-induced BALB/c mouse model of […] assessed as inhibition of p38 MAPK phosphorylation preadministered orally with compound for 3 days followed by LPS stimulation for 6 hrs after 1 hrs compound administration on day 3 by Western blot analysis; format: functional; conditions: dose 5-20 mg/kg, route po, time 3.0 day
RAW264.7 [19] = assay: Inhibition of NFkappaB signaling pathway in LPS-stimulated mouse RAW264.7 cells assessed as decrease in IkappaBalpha protein level at 2.5 to 10 uM by Western blot analysis; format: cell-based; conditions: dose 2.5-10 µM
Mus musculus [20] = assay: as §1, with “NO production” for “TNF-alpha expression”, “5 to 20” for “10”, “Griess reagent based method” for “ELISA”; format: functional, organism-based; conditions: dose 5-20 mg/kg, time 3.0 day
RAW264.7 [21] = assay: Anti-inflammatory activity in LPS-stimulated mouse RAW264.7 cells assessed as reduction in COX-2 expression by Western blot analysis; format: functional, cell-based; conditions: dose 2.5-10 µM
RAW264.7 [22] = assay: Inhibition of NFkappaB signaling pathway in LPS-stimulated mouse RAW264.7 cells assessed as decrease in NFkappaB protein level at 2.5 to 10 uM by Western blot analysis; format: cell-based; conditions: dose 2.5-10 µM
Mus musculus [23] = assay: as §4, with “NLRP3” for “IL-1beta”; format: functional; conditions: dose 5-20 mg/kg, route po, time 3.0 day
Mus musculus [24] = assay: (§5) Anti-inflammatory activity in LPS-induced BALB/c mouse model of […] assessed as inhibition of LPS-induced increase in lung W/D ratio at 5 to 20 mg/kg, po preadministered with compound for 3 days followed by LPS stimulation for 6 hrs after 1 hrs compound administration on day 3; format: functional, organism-based; conditions: dose 5-20 mg/kg, time 3.0 day
Mus musculus [25] = assay: as §2, with “5 to 20” for “10”; format: functional, organism-based; conditions: dose 5-20 mg/kg, time 3.0 day
RAW264.7 [26] = assay: cells; conditions: Mus musculus
Description: Anti-inflammatory activity in mouse RAW264.7 cells assessed as inhibition of LPS-induced IL-6 production preincubated with compound for 1 hrs followed by LPS stimulation and measured after 23 hrs by ELISA

Mus musculus [27] = assay: as §1, with “IL-6” for “TNF-alpha”, “5 to 20” for “10”; format: functional, organism-based; conditions: dose 5-20 mg/kg, time 3.0 day
RAW264.7 [28] = assay: Cytotoxicity against mouse RAW264.7 cells assessed as reduction in cell viability at 30 uM incubated for 24 hrs by MTT assay relative to control; format: toxicity, cell-based; conditions: raw264.7, 24 h
Mus musculus [29] = assay: as §5, with “increase in IL-6 expression in BALF at 5” for “increase in lung W/D ratio at 5”, “day 3 by ELISA” for “day 3”; format: functional, organism-based; conditions: dose 5-20 mg/kg, time 3.0 day
RAW264.7 [30] = assay: Inhibition of MAPK signaling pathway in LPS-stimulated mouse RAW264.7 cells assessed as decrease in phosphorylation of ERK at 2.5 to 10 uM by Western blot analysis; format: cell-based; conditions: dose 2.5-10 µM
[31] = target: NACHT, LRR and PYD domains-containing protein 3 (Mus musculus) (UniProt Q8R4B8); assay: Inhibition of NLRP3 inflammasome activation in LPS-stimulated mouse RAW264.7 cells assessed as downregulation of NLRP3 expression by Western blot analysis; format: cell-based; conditions: dose 2.5-10 µM
Mus musculus [32] = assay: as §4, with “caspase-1” for “IL-1beta”; format: functional; conditions: dose 5-20 mg/kg, route po, time 3.0 day
RAW264.7 [33] = assay: Anti-inflammatory activity in LPS-stimulated mouse RAW264.7 cells assessed as inhibition of ROS production preincubated with compound for 1 hrs followed by LPS stimulation and measured after 23 hrs by DCFH-DA staining based confocal laser microscopic analysis; format: functional, cell-based; conditions: dose 2.5-10 µM, time 24.0 hrs
Mus musculus [34] = assay: In vivo inhibition of MAPK activation in LPS-induced BALB/c mouse model of […] assessed as inhibition of JNK phosphorylation preadministered orally with compound for 3 days followed by LPS stimulation for 6 hrs after 1 hrs compound administration on day 3 by Western blot analysis; format: functional; conditions: dose 5-20 mg/kg, route po, time 3.0 day
Mus musculus [35] = assay: as §2, with “lung alveolar hemorrhage” for “inflammatory cell infiltration in lungs”, “5 to 20” for “10”; format: functional, organism-based; conditions: dose 5-20 mg/kg, time 3.0 day
RAW264.7 [36] = assay: cells; conditions: Mus musculus; remark: listed apart in the source
Description: Anti-inflammatory activity in mouse RAW264.7 cells assessed as inhibition of LPS-induced TNF-alpha production preincubated with compound for 1 hrs followed by LPS stimulation and measured after 23 hrs by ELISA

Mus musculus [37] = assay: Anti-inflammatory activity in LPS-induced BALB/c mouse model of […] assessed as inhibition of iNOS expression preadministered orally with compound for 3 days followed by LPS stimulation for 6 hrs after 1 hrs compound administration on day 3 by Western blot analysis; format: functional, organism-based; conditions: dose 5-20 mg/kg, route po, time 3.0 day
RAW264.7 [38] = assay: cells; conditions: Mus musculus; remark: listed apart in the source
Description: Anti-inflammatory activity in mouse RAW264.7 cells assessed as inhibition of LPS-induced NO production preincubated with compound for 1 hrs followed by LPS stimulation and measured after 23 hrs by Griess reagent based method

Mus musculus [39] = assay: In vivo inhibition of NFkappaB activation in LPS-induced BALB/c mouse model of […] assessed as inhibition of NFkappaB degradation preadministered orally with compound for 3 days followed by LPS stimulation for 6 hrs after 1 hrs compound administration on day 3 by Western blot analysis; format: functional; conditions: dose 5-20 mg/kg, route po, time 3.0 day
RAW264.7 [40] = assay: Anti-inflammatory activity in LPS-stimulated mouse RAW264.7 cells assessed as reduction in iNOS expression by Western blot analysis; format: functional, cell-based; conditions: dose 2.5-10 µM
RAW264.7 [41] = assay: Anti-inflammatory activity in LPS-stimulated mouse RAW264.7 cells assessed as inhibition of ROS production at 2.5 to 10 uM preincubated with compound for 1 hrs followed by LPS stimulation and measured after 23 hrs by DCFH-DA staining based flow cytometric analysis; format: functional, cell-based; conditions: dose 2.5-10 µM, time 24.0 hrs
Mus musculus [42] = assay: Anti-inflammatory activity in LPS-induced BALB/c mouse model of […] assessed as inhibition of COX-2 expression preadministered orally with compound for 3 days followed by LPS stimulation for 6 hrs after 1 hrs compound administration on day 3 by Western blot analysis; format: functional, organism-based; conditions: dose 5-20 mg/kg, route po, time 3.0 day
[43] = Cytotoxicity against mouse RAW264.7 cells assessed as inhibition of cell growth incubated for 24 hrs by MTT assay; format: toxicity, cell-based
RAW264.7 [44] = assay: Inhibition of MAPK signaling pathway in LPS-stimulated mouse RAW264.7 cells assessed as decrease in phosphorylation of p38 MAPK at 2.5 to 10 uM by Western blot analysis; format: cell-based; conditions: dose 2.5-10 µM
Mus musculus [45] = assay: as §1, with “BALF” for “serum”, “5 to 20” for “10”; format: functional, organism-based; conditions: dose 5-20 mg/kg, time 3.0 day
Mus musculus [46] = assay: as §5, with “increase in NO production in BALF at 5” for “increase in lung W/D ratio at 5”, “day 3 by Griess reagent based method” for “day 3”; format: functional, organism-based; conditions: dose 5-20 mg/kg, time 3.0 day
RAW264.7 [47] = assay: Inhibition of MAPK signaling pathway in LPS-stimulated mouse RAW264.7 cells assessed as decrease in phosphorylation of JNK at 2.5 to 10 uM by Western blot analysis; format: cell-based; conditions: dose 2.5-10 µM

NACHT, LRR and PYD domains-containing protein 3 (Mus musculus), sequence (Q8R4B8 whole entry, the tested form may be a part): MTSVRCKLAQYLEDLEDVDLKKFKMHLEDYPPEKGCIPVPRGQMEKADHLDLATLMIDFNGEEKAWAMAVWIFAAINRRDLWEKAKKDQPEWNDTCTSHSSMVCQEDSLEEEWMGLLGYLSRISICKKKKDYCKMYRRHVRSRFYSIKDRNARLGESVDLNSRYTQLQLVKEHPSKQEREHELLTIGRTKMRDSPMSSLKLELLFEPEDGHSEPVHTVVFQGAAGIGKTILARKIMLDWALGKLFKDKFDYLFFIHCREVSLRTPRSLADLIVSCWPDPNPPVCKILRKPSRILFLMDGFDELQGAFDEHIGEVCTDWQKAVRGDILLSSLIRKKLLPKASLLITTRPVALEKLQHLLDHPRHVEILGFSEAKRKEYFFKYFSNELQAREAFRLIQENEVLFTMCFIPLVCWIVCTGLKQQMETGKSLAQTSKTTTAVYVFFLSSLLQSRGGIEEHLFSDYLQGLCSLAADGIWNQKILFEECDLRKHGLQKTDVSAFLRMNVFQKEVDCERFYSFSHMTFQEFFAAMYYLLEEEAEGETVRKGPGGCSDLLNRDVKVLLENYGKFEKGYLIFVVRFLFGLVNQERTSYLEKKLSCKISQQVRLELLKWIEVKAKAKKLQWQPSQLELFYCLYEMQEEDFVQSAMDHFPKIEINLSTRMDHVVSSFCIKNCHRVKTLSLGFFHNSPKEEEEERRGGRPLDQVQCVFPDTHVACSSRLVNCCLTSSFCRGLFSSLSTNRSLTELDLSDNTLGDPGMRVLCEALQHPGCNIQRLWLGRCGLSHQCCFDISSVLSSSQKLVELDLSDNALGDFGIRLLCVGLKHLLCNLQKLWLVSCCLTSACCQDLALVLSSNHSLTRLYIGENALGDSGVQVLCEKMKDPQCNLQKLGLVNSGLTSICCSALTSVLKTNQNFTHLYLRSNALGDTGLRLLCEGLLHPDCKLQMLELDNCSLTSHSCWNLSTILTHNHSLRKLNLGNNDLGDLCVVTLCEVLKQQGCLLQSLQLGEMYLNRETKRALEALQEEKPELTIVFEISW

Cc1ccc(-c2cc(C(F)(F)F)nn2-c2ccc(S(N)(=O)=O)cc2)cc1
active: Activity (Mus musculus [1]) | Activity (Mus musculus [2]) | Activity (Mus musculus [3]) | inhibition (Mus musculus [4]) | Activity (Mus musculus [5]) | Activity (Mus musculus [6]) | Activity (Mus musculus [7]) | Activity (Mus musculus [8]) | inhibition (Mus musculus [9]) | Activity (Mus musculus [10]) | Activity (Mus musculus [11])

CC(=O)O[C@H]1C[C@@]2(C)[C@@H](C[C@@H](O)[C@H]3[C@@]4(C)CC[C@@H](O)[C@@H](C)[C@@H]4CC[C@@]32C)/C1=C(\CCC=C(C)C)C(=O)OCc1cn(-c2ccccc2)nn1
active: inhibition (Mus musculus [12]) Dose-Dependent Effect | inhibition [13] | Activity (Mus musculus [14]) | inhibition (Mus musculus [15]) Dose-Dependent Effect | inhibition [16] Dose-Dependent Effect | inhibition (Mus musculus [17]) Dose-Dependent Effect | inhibition (Mus musculus [18]) Dose-Dependent Effect | inhibition (RAW264.7 [19]) | Activity (Mus musculus [20]) | Activity (RAW264.7 [21]) Dose-Dependent Effect | inhibition (RAW264.7 [22]) | inhibition (Mus musculus [23]) Dose-Dependent Effect | Activity (Mus musculus [24]) | Activity (Mus musculus [25]) | Activity (Mus musculus [27]) | Activity (Mus musculus [29]) | inhibition (RAW264.7 [30]) | inhibition [31] Dose-Dependent Effect | inhibition (Mus musculus [32]) Dose-Dependent Effect | Activity (RAW264.7 [33]) Dose-Dependent Effect | inhibition (Mus musculus [34]) Dose-Dependent Effect | Activity (Mus musculus [35]) | Activity (Mus musculus [37]) Dose-Dependent Effect | inhibition (Mus musculus [39]) Dose-Dependent Effect | Activity (RAW264.7 [40]) Dose-Dependent Effect | Activity (RAW264.7 [41]) | Activity (Mus musculus [42]) Dose-Dependent Effect | inhibition (RAW264.7 [44]) | Activity (Mus musculus [45]) | Activity (Mus musculus [46]) | inhibition (RAW264.7 [47])
94.3 µM: IC50 at 24 h [43]
3.88 µM: IC50 (RAW264.7 [36])
102.79%: Activity (RAW264.7 [28])
3.26 µM: IC50 (RAW264.7 [38])
1850 nM: IC50 (RAW264.7 [26])
